Measurements reported in article PMC9768205, “Pharmacological targeting of the mitochondrial calcium-dependent potassium channel KCa3.1 triggers cell death and reduces tumor growth and metastasis in vivo” (Cell Death & Disease, 2022).

Target: T1, KCa3.1 (Homo sapiens, UniProt O15554)
T1 construct: gene KCNN4
Experiment: whole-cell perforated patch clamp, block of DC-EBIO/ionomycin-activated current
Format: cell-based

T1 sequence (O15554 whole entry): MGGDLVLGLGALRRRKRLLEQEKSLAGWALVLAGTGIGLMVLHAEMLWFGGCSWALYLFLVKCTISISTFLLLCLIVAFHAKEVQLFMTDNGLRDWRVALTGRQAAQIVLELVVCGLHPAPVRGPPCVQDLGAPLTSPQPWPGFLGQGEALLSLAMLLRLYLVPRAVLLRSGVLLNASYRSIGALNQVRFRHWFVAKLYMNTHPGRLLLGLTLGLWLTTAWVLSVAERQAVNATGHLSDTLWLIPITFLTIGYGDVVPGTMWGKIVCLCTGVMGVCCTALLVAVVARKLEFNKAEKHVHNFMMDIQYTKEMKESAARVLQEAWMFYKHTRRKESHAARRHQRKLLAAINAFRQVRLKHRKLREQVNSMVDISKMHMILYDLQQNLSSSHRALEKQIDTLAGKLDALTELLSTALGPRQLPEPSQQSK

IC50: ~2000 nM
SMILES: Clc1ccccc1C(c1ccccc1)(c1ccc(CCC[P+](c2ccccc2)(c2ccccc2)c2ccccc2)cc1)n1cccn1 (stereo not shown) [mitoTRAM-34, (3-(4-((2-chlorophenyl)(phenyl)(1H-pyrazol-1yl)methyl)phenyl)propyl)triphenylphosphonium iodide]
